The record followed here is patent US8703796B2, “3H-imidazo [4, 5-B] pyridine-6-carboxamides as anti-inflammatory agents” (Boehringer Ingelheim International GmbH, priority 2008, dated 2014).

Structures are written as SMILES.

The assay has as its target T1, recombinant human mPGES-1 (Homo sapiens, UniProt O14684).
T1 construct: made in house; host or cells: Rosetta E. coli (microsomal/membrane fraction)
T1 sequence (O14684 1-152): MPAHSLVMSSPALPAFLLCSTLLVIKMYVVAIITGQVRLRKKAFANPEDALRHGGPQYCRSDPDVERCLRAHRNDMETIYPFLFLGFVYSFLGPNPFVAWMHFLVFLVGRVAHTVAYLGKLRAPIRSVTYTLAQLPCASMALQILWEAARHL
As to the kind of experiment: mPGES-1 inhibition, HTRF detection of PGE2. The class given is biochemical. The essentials: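 Microsomes from E. coli Rosetta expressing the enzyme, in 0.1 M KPi pH 7.4 with 2.5 mM GSH, were preincubated 25 min at room temperature with inhibitor in DMSO. PGH2 was added, the reaction stopped after one minute with acidified FeCl2, and PGE2 quantified by HTRF after 750-fold dilution.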
In general terms: Time-resolved FRET reads energy transfer from a long-lived donor to a nearby acceptor.
In general, inhibition refers to how much of the control response was suppressed. For `Cn1c(Nc2c(Cl)cncc2Cl)nc2cc(C(=O)NCc3ncccc3C(F)(F)F)c(OC3CCOC3)nc21` (stereo not shown) [Example 847, 2-(3,5-Dichloro-pyridin-4-ylamino)-5-(tetrahydrofuran-3-yl-oxy)-N-((3-trifluoromethyl-pyridin-2-yl)-methyl)-3-methyl-3H-imidazo[4,5-b]pyridine-6-carboxamide], the inhibition at 10 µM is 100%.
With `Cn1c(Nc2c(Cl)cncc2Cl)nc2cc(C(=O)Nc3ccc(Br)cc3)c(OC3CCOC3)nc21` (stereo not shown) [Example 848, 2-(3,5-Dichloro-pyridin-4-ylamino)-5-(tetrahydrofuran-3-yl-oxy)-N-(4-bromo-phenyl)-3-methyl-3H-imidazo[4,5-b]pyridine-6-carboxamide], the inhibition at 10 µM was 100%.
Regarding `Cn1c(Nc2c(Cl)cncc2Cl)nc2cc(C(=O)NCC(F)(F)C(F)(F)C(F)(F)C(F)(F)F)c(OC3CCOC3)nc21` (stereo not shown) [Example 849, 2-(3,5-Dichloro-pyridin-4-ylamino)-5-(tetrahydrofuran-3-yl-oxy)-N-(2,2,3,3,4,4,5,5,5-nonafluoro-pentyl)-3-methyl-3H-imidazo[4,5-b]pyridine-6-carboxamide], the inhibition at 10 µM is 98%.
With `Cn1c(Nc2c(Cl)cncc2Cl)nc2cc(C(=O)NCC(F)(F)C(F)(F)C(F)(F)C(F)(F)F)c(OCC(F)(F)F)nc21` [Example 850, 2-(3,5-Dichloro-pyridin-4-ylamino)-5-(2,2,2-trifluoro-ethoxy)-N-(2,2,3,3,4,4,5,5,5-nonafluoro-pentyl)-3-methyl-3H-imidazo[4,5-b]pyridine-6-carboxamide], the inhibition at 10 µM is 99%.
As for `Cn1c(Nc2c(Cl)cncc2Cl)nc2cc(C(=O)NCc3ncccc3C(F)(F)F)c(OCC(F)(F)F)nc21` [Example 851, 2-(3,5-Dichloro-pyridin-4-ylamino)-5-(2,2,2-trifluoro-ethoxy)-N-((3-trifluoromethyl-pyridin-2-yl)-methyl)-3-methyl-3H-imidazo[4,5-b]pyridine-6-carboxamide], the inhibition at 10 µM worked out at 98%.
Take `Cn1c(Nc2c(Cl)cncc2Cl)nc2cc(C(=O)Nc3cc(C(F)(F)F)ccn3)c(OCC(F)(F)F)nc21` [Example 852, 2-(3,5-Dichloro-pyridin-4-ylamino)-5-(2,2,2-trifluoro-ethoxy)-N-(4-trifluoromethyl-pyridin-2-yl)-3-methyl-3H-imidazo[4,5-b]pyridine-6-carboxamide]: the inhibition at 10 µM worked out at 95%.
For the compound `O=C(NCc1ccccc1C(F)(F)F)c1cc2nc(Nc3c(Cl)cncc3Cl)[nH]c2nc1OCC(F)(F)F` [Example 853, 2-(3,5-Dichloro-pyridin-4-ylamino)-5-(2,2,2-trifluoro-ethoxy)-N-(2-trifluoromethyl-benzyl)-3H-imidazo[4,5-b]pyridine-6-carboxamide], the inhibition at 10 µM was found to be 100%.
In the case of `O=C(NCC(F)(F)C(F)(F)C(F)(F)C(F)(F)F)c1cc2nc(Nc3c(Cl)cncc3Cl)[nH]c2nc1OCC(F)(F)F` [Example 854, 2-(3,5-Dichloro-pyridin-4-ylamino)-5-(2,2,2-trifluoro-ethoxy)-N-(2,2,3,3,4,4,5,5,5-nonafluoro-pentyl)-3H-imidazo[4,5-b]pyridine-6-carboxamide], the inhibition at 10 µM was 96%.
On to `O=C(NCc1ncccc1C(F)(F)F)c1cc2nc(Nc3c(Cl)cncc3Cl)[nH]c2nc1OCC(F)(F)F` [Example 855, 2-(3,5-Dichloro-pyridin-4-ylamino)-5-(2,2,2-trifluoro-ethoxy)-N-((3-trifluoromethyl-pyridin-2-yl)-methyl)-3H-imidazo[4,5-b]pyridine-6-carboxamide], for which the inhibition at 10 µM turned out to be 100%.
For the compound `CCOc1nc2[nH]c(Nc3c(Cl)cncc3Cl)nc2cc1C(=O)Nc1ccc(Br)cc1` [Example 856, 2-(3,5-Dichloro-pyridin-4-ylamino)-5-ethoxy-N-(4-bromo-phenyl)-3H-imidazo[4,5-b]pyridine-6-carboxamide], the inhibition at 10 µM amounted to 93%.
On to `O=C(Nc1cc(C(F)(F)F)ccn1)c1cc2nc(Nc3c(Cl)cncc3Cl)[nH]c2nc1OCC(F)(F)F` [Example 857, 2-(3,5-Dichloro-pyridin-4-ylamino)-5-(2,2,2-trifluoro-ethoxy)-N-(4-trifluoromethyl-pyridin-2-yl)-3H-imidazo[4,5-b]pyridine-6-carboxamide], for which the inhibition at 10 µM was determined as 99%.
The value for `O=C(Nc1ccc(Br)cc1)c1cc2nc(Nc3c(Cl)cncc3Cl)[nH]c2nc1OCC(F)(F)F` [Example 858, 2-(3,5-Dichloro-pyridin-4-ylamino)-5-(2,2,2-trifluoro-ethoxy)-N-(4-bromo-phenyl)-3H-imidazo[4,5-b]pyridine-6-carboxamide] was 100%.
The value for `O=C(N[C@H]1CC[C@H](C(F)(F)F)CC1)c1cc2nc(Nc3c(Cl)cncc3Cl)[nH]c2nc1OCC(F)(F)F` [Example 859, 2-(3,5-Dichloro-pyridin-4-ylamino)-5-(2,2,2-trifluoro-ethoxy)-N-(trans-4-trifluoromethyl-cyclohexyl)-3H-imidazo[4,5-b]pyridine-6-carboxamide] was 89%.
Consider `COc1nc2c(cc1C(=O)NCc1ncccc1C(F)(F)F)nc(Nc1c(Cl)cccc1Cl)n2C` [Example 860, 2-(2,6-Dichloro-phenylamino)-5-methoxy-N-((3-trifluoromethyl-pyridin-2-yl)-methyl)-3-methyl-3H-imidazo[4,5-b]pyridine-6-carboxamide], for which the inhibition at 10 µM is 100%.
The same measure for `COc1nc2c(cc1C(=O)NCc1ccccc1C(F)(F)F)nc(Nc1c(Cl)cccc1Cl)n2C` [Example 861, 2-(2,6-Dichloro-phenylamino)-5-methoxy-N-(2-trifluoromethyl-benzyl)-3-methyl-3H-imidazo[4,5-b]pyridine-6-carboxamide]: 100%.
For `O=C(N[C@H]1CC[C@H](C(F)(F)F)CC1)c1cc2nc(Nc3c(Cl)cncc3Cl)[nH]c2nc1OCC(F)F` [Example 862, 2-(3,5-Dichloro-pyridin-4-ylamino)-5-(2,2-difluoro-ethoxy)-N-(trans-4-trifluoromethyl-cyclohexyl)-3H-imidazo[4,5-b]pyridine-6-carboxamide], the inhibition at 10 µM is 99%.
The same measure for `Cn1c(Nc2c(Cl)cc(F)cc2Cl)nc2cc(C(=O)N[C@H]3CC[C@H](C(F)(F)F)CC3)c(OCC(F)F)nc21` [Example 863, 2-(2,6-Dichloro-4-fluoro-phenylamino)-5-(2,2-difluoro-ethoxy)-N-(trans-4-trifluoromethyl-cyclohexyl)-3-methyl-3H-imidazo[4,5-b]pyridine-6-carboxamide]: 82%; for `CN(C)CCOc1nc2[nH]c(Nc3c(Cl)cc(F)cc3Cl)nc2cc1C(=O)N[C@H]1CC[C@H](C(F)(F)F)CC1` [Example 864, 2-(2,6-Dichloro-4-fluoro-phenylamino)-5-(2-dimethylamino-ethoxy)-N-(trans-4-trifluoromethyl-cyclohexyl)-3H-imidazo[4,5-b]pyridine-6-carboxamide]: 91%.
The same measure for `CN(C)CCOc1nc2c(cc1C(=O)N[C@H]1CC[C@H](C(F)(F)F)CC1)nc(Nc1c(Cl)cc(F)cc1Cl)n2C` [Example 865, 2-(2,6-Dichloro-4-fluoro-phenylamino)-5-(2-dimethylamino-ethoxy)-N-(trans-4-trifluoromethyl-cyclohexyl)-3-methyl-3H-imidazo[4,5-b]pyridine-6-carboxamide]: 92%.
As to `COCCOc1nc2[nH]c(Nc3c(Cl)cncc3Cl)nc2cc1C(=O)N[C@H]1CC[C@H](C(F)(F)F)CC1` [Example 866, 2-(3,5-Dichloro-pyridin-4-ylamino)-5-(2-methoxy-ethoxy)-N-(trans-4-trifluoromethyl-cyclohexyl)-3H-imidazo[4,5-b]pyridine-6-carboxamide], the inhibition at 10 µM came to 100%.
As to `COCCOc1nc2[nH]c(Nc3c(Cl)cc(F)cc3Cl)nc2cc1C(=O)N[C@H]1CC[C@H](C(F)(F)F)CC1` [Example 867, 2-(2,6-Dichloro-4-fluoro-phenylamino)-5-(2-methoxy-ethoxy)-N-(trans-4-trifluoromethyl-cyclohexyl)-3H-imidazo[4,5-b]pyridine-6-carboxamide], the inhibition at 10 µM worked out at 100%.
For the compound `COCCOc1nc2c(cc1C(=O)N[C@H]1CC[C@H](C(F)(F)F)CC1)nc(Nc1c(Cl)cncc1Cl)n2C` [Example 868, 2-(3,5-Dichloro-pyridin-4-ylamino)-5-(2-methoxy-ethoxy)-N-(trans-4-trifluoromethyl-cyclohexyl)-3-methyl-3H-imidazo[4,5-b]pyridine-6-carboxamide], the inhibition at 10 µM is 100%.
Regarding `COCCOc1nc2c(cc1C(=O)N[C@H]1CC[C@H](C(F)(F)F)CC1)nc(Nc1c(Cl)cc(F)cc1Cl)n2C` [Example 869, 2-(2,6-Dichloro-4-fluoro-phenylamino)-5-(2-methoxy-ethoxy)-N-(trans-4-trifluoromethyl-cyclohexyl)-3-methyl-3H-imidazo[4,5-b]pyridine-6-carboxamide], the inhibition at 10 µM was found to be 100%.
With `Cn1c(Nc2c(Cl)cc(F)cc2Cl)nc2cc(C(=O)N[C@H]3CC[C@H](C(F)(F)F)CC3)c(OCCF)nc21` [Example 870, 2-(2,6-Dichloro-4-fluoro-phenylamino)-5-(2-fluoro-ethoxy)-N-(trans-4-trifluoromethyl-cyclohexyl)-3-methyl-3H-imidazo[4,5-b]pyridine-6-carboxamide], the inhibition at 10 µM was 100%.
The value for `Cn1c(Nc2c(Cl)cc(F)cc2Cl)nc2cc(C(=O)NCc3ccccc3C(F)(F)F)c(OCC(F)F)nc21` [Example 871, 2-(2,6-Dichloro-4-fluoro-phenylamino)-5-(2,2-difluoro-ethoxy)-N-(2-trifluoromethyl-benzyl)-3-methyl-3H-imidazo[4,5-b]pyridine-6-carboxamide] was 100%.
